Assay results published in BigSolDB 2.1.

Nc1ccc(N2CCOCC2=O)cc1
solubility (mole fraction)
Settings | in 1,4-dioxane | in THF | in ethanol | in ethyl acetate | in methanol | in n-propanol
278.15 K | 0.00411 | 0.00138 | 0.00127 | 0.000559 | 0.00172 | 0.000322
283.15 K | 0.00529 | 0.00182 | 0.00162 | 0.000794 | 0.00221 | 0.000404
288.15 K | 0.00665 | 0.00245 | 0.00208 | 0.0011 | 0.00285 | 0.000506
293.15 K | 0.0083 | 0.00323 | 0.0026 | 0.00149 | 0.00367 | 0.000649
298.15 K | 0.0102 | 0.00423 | 0.00321 | 0.00196 | 0.00463 | 0.000825
303.15 K | 0.0125 | 0.00542 | 0.00393 | 0.00257 | 0.00589 | 0.00105
308.15 K | 0.0149 | 0.00687 | 0.00475 | 0.00326 | 0.00751 | 0.00133
313.15 K | 0.0178 | 0.00865 | 0.00567 | 0.00412 | 0.00955 | 0.0017
318.15 K | 0.0209 | 0.0107 | 0.00672 | 0.00509 | 0.0121 | 0.00216
323.15 K | 0.0244 | 0.0132 | 0.00792 | 0.0062 | 0.0153 | 0.00274
328.15 K | 0.0282 | 0.0159 | 0.00928 | 0.00743 | 0.019 | 0.00348
333.15 K | 0.032 | 0.0191 | 0.0107 | 0.00873 | 0.0239 | 0.00443
